# Measured values reported in patent US20050170485A1, “Culture having phenol oxidase-like activity” (priority 2002, published 2005).
# Tests used:
# Assay type in all cases: biochemical
# [1] = test system: culture of Flammulina velutipes strain IFO 30601; assay: Substrate specificity of the culture (phenol oxidase-like activity, Table 1); conditions: pH 7.0; determined wavelength per substrate (Table 1)
# [2] = test system: culture of Flammulina velutipes strain IFO 30601; assay: Direct oxidation reaction by the culture; conditions: for activity of the culture for the substrate in words, direct oxidation reaction: pH 7.0; for activity of the culture compared with bilirubin oxidase from the genus Myrothecium, direct oxidation / activity of the culture compared with laccase from Japanese lacquer, direct oxidation: pH 7.0, relative activities of Table 7; for Relative Activity, Culture (direct oxidation): reaction pH 7.0, 2-chloro 1,4-phenylenediamine = 100
# Protocol: Further, the direct oxidation reaction of the culture obtained in the above-mentioned example was determined by using color development due to oxidative polymerization of a substrate generated by the direct action of the culture of the present invention on the substrate as an index.
# As the substrates, there were used diaminophenolic compounds (2-chloro 1,4-phenylenediamine, p-phenylenediamine, 2,5-diaminotoluene, N-phenyl-p-phenylenediamine, toluylene-3,4-diamine, m-phenylenediamine), aminophenolic compounds (o-aminophenol, m-aminophenol, 5-amino-o-cresol, p-aminophenol, p-methylaminophenol), and phenolic compounds (2,6-dimethoxyphenol, catechol, resorcinol, hydroquinone, pyrogallol, gallic acid, propyl gallate, 1-naphthol, […], 2,3,4-trihydroxybenzophenone, 2,3,4,4-tetrahydroxybenzophenone). As to a substrate hardly soluble in water, there was used one obtained by dissolving the substrate in a small amount of dimethyl sulfoxide and diluting the resulting solution with deionized distilled water to a desired concentration. In Table 6, %” indicates volume/volume %.
# (§1) Concretely, 180 μl of 0.89 mM sodium phosphate buffer (pH 7.0) containing […] substrate was pre-incubated in wells of a 96-well microplate [manufactured by Corning, Costor (registered trademark) 3368] at 25° C. for 1 minute. Next, 20 μl of the above-mentioned culture solution was added to the resulting mixture. A change in absorbance at 490 nm, 450 nm or 405 nm was determined for the resulting product, depending on the substrate. Here, 1 U (unit) of the activity regarding the direct oxidative reaction was defined as an amount for increasing the absorbance by 1 per one minute.
# [3] = test system: culture of Flammulina velutipes strain IFO 30601; assay: Oxidative coupling reaction with 4-aminoantipyrine by the culture; conditions: for Specific Activity, Culture (oxidative coupling with 4-aminoantipyrine): reaction pH 7.0, 25° C., substrate 2.0 mM; for activity of the culture for the substrate in words, oxidative coupling reaction: pH 7.0
# Protocol: Next, the oxidative coupling reaction of the culture obtained in (2) in Example 1 mentioned above was determined by using color development as an index by the oxidative condensation of the substrate (hydrogen donor) with 4-aminoantipyrine, catalyzed by the culture of the present invention.
# As the hydrogen donors, there were used phenolic compounds (phenol, 2-methoxyphenol, 2,6-dimethoxyphenol, catechol, resorcinol, hydroquinone, pyrogallol, gallic acid, propyl gallate, 1-naphthol, catechin), aminophenolic compounds (o-aminophenol, m-aminophenol, p-aminophenol), diaminophenolic compounds (o-phenylenediamine, m-phenylenediamine, p-phenylenediamine), and heterocyclic compounds (5-hydroxyindole, 2,6-diaminopyridine).
# The above-mentioned culture solution was added to a reaction system containing 4-aminoantipyrine and an optional hydrogen donor. Thereafter, the activity of the culture of the present invention was assayed by determining a change in absorbance at 490 nm for the phenolic compound, the diaminophenolic compound and the heterocyclic compound, or determining a change in absorbance at 450 nm for the aminophenolic compound. As to a substrate hardly soluble in water, there was used one obtained by dissolving the substrate in a small amount of dimethyl sulfoxide and diluting the resulting solution with deionized water to a desired concentration. In Table 4, DMSO is an abbreviation for dimethyl sulfoxide.
# (§2) Concretely, 190 μl of 105.3 mM phosphate buffer (pH 7.0) containing 0.4 μmol of a substrate and 4.0 μmol of 4-aminoantipyrine was pre-incubated in wells of a 96-well microplate [manufactured by Corning, Costor (registered trademark) 3368] at 25° C. for 1 minute. Next, 10 μl of the above-mentioned culture solution was added to the resulting mixture, and thereafter, the mixture was incubated for 1 hour. A change in absorbance at 490 nm or 450 nm was determined for the resulting product. One unit (U) of the activity regarding the oxidative coupling reaction was defined as an amount for increasing the absorbance by 1 per one minute.
# [4] = target: T1, bilirubin oxidase from the strain of the genus Myrothecium (Albifimbria verrucaria, UniProt Q12737); assay: Oxidative coupling reaction with 4-aminoantipyrine by bilirubin oxidase (comparison); conditions: reaction pH 8.0, substrate 2.0 mM
# T1 sequence (Q12737 39-572): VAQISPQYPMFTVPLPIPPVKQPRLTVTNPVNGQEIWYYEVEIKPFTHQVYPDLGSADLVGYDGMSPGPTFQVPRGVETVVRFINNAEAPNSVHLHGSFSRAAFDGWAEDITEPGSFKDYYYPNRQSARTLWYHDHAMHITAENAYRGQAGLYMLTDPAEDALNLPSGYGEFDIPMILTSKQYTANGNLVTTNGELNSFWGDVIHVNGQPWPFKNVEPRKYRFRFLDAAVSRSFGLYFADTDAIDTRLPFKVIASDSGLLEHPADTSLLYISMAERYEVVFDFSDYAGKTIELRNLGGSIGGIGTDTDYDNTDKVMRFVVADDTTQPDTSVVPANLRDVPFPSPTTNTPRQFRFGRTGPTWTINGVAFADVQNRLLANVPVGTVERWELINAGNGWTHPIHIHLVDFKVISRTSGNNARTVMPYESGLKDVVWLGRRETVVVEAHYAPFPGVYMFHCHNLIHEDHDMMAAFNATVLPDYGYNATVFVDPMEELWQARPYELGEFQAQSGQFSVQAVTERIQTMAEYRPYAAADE
# Protocol: as §2
# In addition, for the comparison, the examination was made in the same manner for bilirubin oxidase from the strain of the genus Myrothecium except that the above-mentioned buffer was replaced with 105.3 mM Tris-HCl buffer (pH 8.0).
# [5] = test system: laccase from Japanese lacquer; assay: Direct oxidation reaction by laccase (comparison); conditions: reaction pH 7.0; 2-chloro 1,4-phenylenediamine = 100
# Protocol: Next, 20 μl of the above-mentioned culture solution was added to the resulting mixture. A change in absorbance at 490 nm, 450 nm or 405 nm was determined for the resulting product, depending on the substrate. Here, 1 U (unit) of the activity regarding the direct oxidative reaction was defined as an amount for increasing the absorbance by 1 per one minute.
# (§3) In addition, for the comparison, the substrate specificities at pH 7.0 for laccase from Japanese lacquer and bilirubin oxidase from the strain belonging to the genus Myrothecium were also examined in the same manner.
# [6] = target: T2, bilirubin oxidase from the strain belonging to the genus Myrothecium (Albifimbria verrucaria, UniProt Q12737); assay: Direct oxidation reaction by bilirubin oxidase (comparison); design: concentration or dose not given beside the values; conditions: reaction pH 7.0; 2-chloro 1,4-phenylenediamine = 100
# T2 sequence (Q12737 39-572): T1 sequence (Q12737 39-572)
# Protocol: as §1, §3
# The relative activity (%) for each substrate is shown in Table 7, in which the measured value for a case where a representative chemical dye 2-chloro 1,4-phenylenediamine was used as a substrate is 100.
Structure (SMILES),U (activity of the culture on the substrate) [1] [U],"activity of the culture for the substrate in words, direct oxidation reaction [2]","activity of the culture compared with bilirubin oxidase from the genus Myrothecium, direct oxidation [2]","activity of the culture compared with laccase from Japanese lacquer, direct oxidation [2]","Relative Activity, Culture (direct oxidation) [2] [%]","Specific Activity, Culture (oxidative coupling with 4-aminoantipyrine) [3] [U/mg Protein]","Specific Activity, Bilirubin Oxidase from Strain Belonging to Genus Myrothecium (oxidative coupling with 4-aminoantipyrine) [4] [U/mg Protein]","Relative Activity, Laccase from Japanese Lacquer (direct oxidation) [5] [%]","Relative Activity, Bilirubin Oxidase from Strain Belonging to Genus Myrothecium (direct oxidation) [6] [%]","activity of the culture for the substrate in words, oxidative coupling reaction [3]"
N[C@@H](Cc1ccc(O)cc1)C(=O)O [L-Tyrosine],0.018,,,,,,,,,
Nc1ccc(N)cc1 [p-Phenylenediamine],0.101,especially high activity,higher activity,higher activity,388,20.9,11.1,142,82,
COc1ccccc1O [2-Methoxyphenol],0.117,,,,,14.5,2.5,,,especially high activity
Nc1ccccc1O [o-Aminophenol],0.262,especially high activity,even higher activity,even higher activity,650,22.4,15.1,103,86,especially high activity
CCn1c(=NN=c2sc3cc(S(=O)(=O)O)ccc3n2CC)sc2cc(S(=O)(=O)O)ccc21 [ABTS],0.683,,,,,,,,,
Nc1ccc(O)cc1 [p-Aminophenol],0.072,especially high activity,higher activity,higher activity,235,12.7,7.0,109,70,especially high activity
Nc1cccc(O)c1 [m-Aminophenol],,,even higher activity,even higher activity,40,8.8,1.3,3,3,
Oc1ccccc1O [Catechol],0.029,,higher activity,even higher activity,21,23.3,16.0,2,5,especially high activity
Oc1cccc2[nH]ccc12 [4-Hydroxyindole],0.078,,,,,,,,,
Nc1cccc(N)c1 [m-Phenylenediamine],,,,even higher activity,26,29.7,1.7,4,14,
O=C(O)c1cc(O)c(O)c(O)c1 [Gallic acid],,,,even higher activity,65,0.9,14.9,9,88,
Oc1cccc(O)c1 [Resorcinol],,,,higher activity,75,5.7,25.6,25,91,
COc1cc(/C=N/N=C/c2cc(OC)c(O)c(OC)c2)cc(OC)c1O [Syringaldazine],0.141,,,,,,,,,
CCCOC(=O)c1cc(O)c(O)c(O)c1 [Propyl Gallate],,,higher activity,higher activity,34,−0.2,−0.1,14,85,
